According to US20230390287A1, “MODULATORS OF PD-L1/PD-1 INTERACTION AND USES THEREOF” (Ramot at Tel-Aviv University Ltd., priority 2021, published 2023):
“Also recorded” adds a separate entry of the source.

Columns and labels:
[1] = tested on: MC38 expressing human PD-L1 (MC38-hPD-L1); assay: MC38-hPD-L1 tumor model in humanized PD-1 mice; type: in vivo
Method: Male C57BL/6N-Pdcd1tm1^(huPDCD1-ICP11)Geno humanized for PD-1 (6 weeks old) were purchased from genOway and housed in an animal facility.
Male C57BL/6N humanized PD-1 mice were implanted with 1×10^6 MC38 cells expressing humanized PD-L1 (MC38-hPD-L1) subcutaneously in the right flank. Twelve days later, when tumor volumes reached approx. 60 mm^3 (40-110 mm^3) as measured by digital caliper, animals were randomized into the three treatment groups (n=6 per group). Compound 69 was administered via intraperitoneal (i.p.) injection at 10 mg/kg for 10 daily doses between study days 12 and 22. Similarly, vehicle control (5% (v/v) DMSO, 30% (v/v) polyethylene glycol (PEG) 300, 5% (v/v) Tween® 80, and double distilled (dd) H2O) was administered. The αPD-L1 antibody Atezolizumab was administered via i.p. injection at 10 mg/kg thrice weekly between study days 12 and 22. The tumor size and body weight were measured every 3 days. The tumor volume was determined by X^2Y0.5 (X, small diameter; Y, large diameter).
At day 30, the mice were euthanized, and MC38 tumors and spleens were collected. Tumor and spleen single-cell suspensions were obtained by mechanical disruption of the tissues. […] The obtained single-cell suspensions were then stained with fluorochrome-labelled antibodies and analyzed using a Cytek Aurora (Cytek) and FlowJo software (TreeStar). […]

[2] = tested on: patient-derived tumor cells and autologous PBMC (CD8+ T cells); assay: Co-culture of patient-derived PBMC and autologous tumor cells; type: cell-based, human; conditions: 72 hours of co-culture; 7 patients
Method: Tumor—Lymphocyte Co-Culture:
One day before co-culture, PBMC were re-suspended in RPMI-1640 supplemented with 150 U/ml IL-2 (Peprotech) and cultured overnight at 37° C. Prior to co-culture, tumor cells were stimulated overnight with 200 ng/ml human recombinant IFN-γ (Peprotech). The next day, tumor cells were scraped to single cells and re-suspended in RPMI. PBMC were seeded at a density of […] and stimulated with single cell-dissociated tumor cells at a 2:1 Effector:Target ratio. Co-cultures were performed in the presence of 150 U/ml IL-2 (Peprotech), 5 μg/ml of anti-CD28 (BioxCell) and αPD-L1 blocking antibody or small-molecule inhibitor for 72 hours. The cells were then stained with fluorochrome-labeled antibodies and analyzed using an LSR Fortessa (BD Biosciences) and FlowJo software. […]
The PBMC and tumor cells were co-cultured and treated with anti-CD28 (blue) and PD-L1 inhibitors (small-molecule inhibitor Compound 69 (yellow) and anti-PD-L1 (red)) for 72 hours. The PD-1/PD-L1 inhibition and T-cell activation were assessed using flow cytometry, and the obtained data is shown in FIGS. 8B-E. The anti-PD-L1 (αPD-L1) was added as the relevant control for PD-L1 inhibition.

CCCCCN(CCCCC)C(C)C(=O)c1cc(C)c2ccc3cc(C(C)C)ccc3c2c1.Cl (stereo not shown) [Compound 69]
tumor volume reduction relative to vehicle control ([1]; 10 mg/kg i.p., 10 daily doses): 93.6%
cytotoxic CD8+ tumor-infiltrating lymphocytes ([1]; tumors isolated at day 30, flow cytometry): significant increase; also recorded: significantly outperformed the monoclonal antibody
CD107a upregulation in CD8+ T cells [2]: induced
IFN-γ secretion in CD8+ T cells [2]: induced
